# Data taken from ChEMBL document CHEMBL4622932, “Design, synthesis and biological evaluation of new Myo-inositol derivatives as potential RAS inhibitors” (Bioorg Med Chem Lett, 2020).
# How the values were obtained:
# [1] = target: GTPase KRas (Homo sapiens) (UniProt P01116); test: Inhibition of KRAS in human MCF7 cells assessed as reduction in phosphorylated ERK1/2 at Thr185/Tyr187 residues protein level at 35 uM measured after 24 hrs by Western blot analysis relative to control; type: cell-based
# MDA-MB-231 [2] = test: Antiproliferative activity against human MDA-MB-231 cells reduction in cell viability measured after 48 hrs by MTT assay; type: functional, cell-based
# [3] = target: GTPase KRas (Homo sapiens) (UniProt P01116); test: Inhibition of KRAS in human MCF7 cells assessed as reduction in ERK1/2 137F5 protein level at 35 uM measured after 24 hrs by Western blot analysis relative to control; type: cell-based
# [4] = target: GTPase KRas (Homo sapiens) (UniProt P01116); test: Inhibition of KRAS in human MDA-MB-231 cells assessed as reduction in phosphorylated RAF-1 E1 protein level at 15 uM measured after 24 hrs by Western blot analysis relative to control; type: cell-based
# [5] = target: GTPase KRas (Homo sapiens) (UniProt P01116); test: Inhibition of KRAS in human MDA-MB-231 cells assessed as reduction in MEK1/2 9G3 protein level at 15 uM measured after 24 hrs by Western blot analysis relative to control; type: cell-based
# MDA-MB-231 [6] = test: Cell cycle arrest in human MDA-MB-231 cells assessed as accumulation at S phase at 15 uM measured after 48 hrs by propidium iodide/RNase staining based flow cytometry (reference value: 22.09 %); type: functional
# [7] = target: GTPase KRas (Homo sapiens) (UniProt P01116); test: Inhibition of KRAS in human MCF7 cells assessed as reduction in phosphorylated RAF-1 E1 protein level at 25 uM measured after 24 hrs by Western blot analysis relative to control; type: cell-based
# [8] = target: GTPase KRas (Homo sapiens) (UniProt P01116); test: Inhibition of KRAS in human MDA-MB-231 cells assessed as reduction in phosphorylated ERK1/2 at Thr185/Tyr187 residues protein level at 35 uM measured after 24 hrs by Western blot analysis relative to control; type: cell-based
# MDA-MB-231 [9] = test: Cell cycle arrest in human MDA-MB-231 cells assessed as accumulation at G1 phase at 25 uM measured after 48 hrs by propidium iodide/RNase staining based flow cytometry (reference value: 74.56 %); type: functional
# MCF7 [10] = test: Induction of apoptosis in human MCF7 cells assessed as early apoptotic cells at 25 uM measured after 48 hrs by annexinV-FITC/propidium iodide staining based flow cytometry (reference value: 0.04 %); type: functional
# [11] = target: GTPase KRas (Homo sapiens) (UniProt P01116); test: Inhibition of KRAS in human MDA-MB-231 cells assessed as reduction in ERK1/2 137F5 protein level at 15 uM measured after 24 hrs by Western blot analysis relative to control; type: cell-based
# MDA-MB-231 [12] = test: Cell cycle arrest in human MDA-MB-231 cells assessed as accumulation at S phase at 25 uM measured after 48 hrs by propidium iodide/RNase staining based flow cytometry (reference value: 22.09 %); type: functional
# MCF7 [13] = test: Antiproliferative activity against human MCF7 cells reduction in cell viability measured after 48 hrs by MTT assay; type: functional, cell-based
# [14] = target: GTPase KRas (Homo sapiens) (UniProt P01116); test: Inhibition of KRAS in human MDA-MB-231 cells assessed as reduction in phosphorylation of RAF measured after 24 hrs by Western blot analysis; type: cell-based
# MDA-MB-231 [15] = test: Cell cycle arrest in human MDA-MB-231 cells assessed as accumulation at G2 phase at 15 uM measured after 48 hrs by propidium iodide/RNase staining based flow cytometry (reference value: 3.35 %); type: functional
# MDA-MB-231 [16] = test: Induction of apoptosis in human MDA-MB-231 cells assessed as early apoptotic cells at 25 uM measured after 48 hrs by annexinV-FITC/propidium iodide staining based flow cytometry (reference value: 0.69 %); type: functional
# [17] = target: GTPase KRas (Homo sapiens) (UniProt P01116); test: Inhibition of KRAS in human MDA-MB-231 cells assessed as reduction in Pan RAS protein level at 25 uM measured after 24 hrs by Western blot analysis relative to control; type: cell-based
# [18] = target: GTPase KRas (Homo sapiens) (UniProt P01116); test: Inhibition of KRAS in human MDA-MB-231 cells assessed as reduction in Pan RAS protein level at 15 uM measured after 24 hrs by Western blot analysis relative to control; type: cell-based
# [19] = target: GTPase KRas (Homo sapiens) (UniProt P01116); test: Inhibition of KRAS in human MCF7 cells assessed as reduction in phosphorylated ERK1/2 at Thr185/Tyr187 residues protein level at 25 uM measured after 24 hrs by Western blot analysis relative to control; type: cell-based
# [20] = target: GTPase KRas (Homo sapiens) (UniProt P01116); test: Inhibition of KRAS in human MCF7 cells assessed as reduction in ERK1/2 137F5 protein level at 15 uM measured after 24 hrs by Western blot analysis relative to control; type: cell-based
# MCF7 [21] = test: Induction of apoptosis in human MCF7 cells assessed as late apoptotic cells at 15 uM measured after 48 hrs by annexinV-FITC/propidium iodide staining based flow cytometry (reference value: 0.17 %); type: functional
# MCF7 [22] = test: Induction of apoptosis in human MCF7 cells assessed as necrotic cells at 15 uM measured after 48 hrs by annexinV-FITC/propidium iodide staining based flow cytometry (reference value: 0.08 %); type: functional
# [23] = target: GTPase KRas (Homo sapiens) (UniProt P01116); test: Inhibition of KRAS in human MDA-MB-231 cells assessed as reduction in phosphorylated ERK1/2 at Thr185/Tyr187 residues protein level at 15 uM measured after 24 hrs by Western blot analysis relative to control; type: cell-based
# [24] = target: GTPase KRas (Homo sapiens) (UniProt P01116); test: Inhibition of KRAS in human MCF7 cells assessed as reduction in phosphorylated MEK1/2 at Ser217/221 residues protein level at 15 uM measured after 24 hrs by Western blot analysis relative to control; type: cell-based
# MDA-MB-231 [25] = test: Induction of apoptosis in human MDA-MB-231 cells assessed as early apoptotic cells at 15 uM measured after 48 hrs by annexinV-FITC/propidium iodide staining based flow cytometry (reference value: 0.69 %); type: functional
# [26] = target: GTPase KRas (Homo sapiens) (UniProt P01116); test: Inhibition of KRAS in human MDA-MB-231 cells assessed as reduction in phosphorylated MEK1/2 at Ser217/221 residues protein level at 15 uM measured after 24 hrs by Western blot analysis relative to control; type: cell-based
# MCF7 [27] = test: Induction of apoptosis in human MCF7 cells assessed as early apoptotic cells at 15 uM measured after 48 hrs by annexinV-FITC/propidium iodide staining based flow cytometry (reference value: 0.04 %); type: functional
# [28] = target: GTPase KRas (Homo sapiens) (UniProt P01116); test: Inhibition of KRAS in human MDA-MB-231 cells assessed as reduction in phosphorylated MEK1/2 at Ser217/221 residues protein level at 25 uM measured after 24 hrs by Western blot analysis relative to control; type: cell-based
# [29] = target: GTPase KRas (Homo sapiens) (UniProt P01116); test: Inhibition of KRAS in human MDA-MB-231 cells assessed as reduction in ERK1/2 137F5 protein level at 35 uM measured after 24 hrs by Western blot analysis relative to control; type: cell-based
# MDA-MB-231 [30] = test: Induction of apoptosis in human MDA-MB-231 cells assessed as late apoptotic cells at 25 uM measured after 48 hrs by annexinV-FITC/propidium iodide staining based flow cytometry (reference value: 0 %); type: functional
# [31] = target: GTPase KRas (Homo sapiens) (UniProt P01116); test: Inhibition of KRAS in human MCF7 cells assessed as reduction in phosphorylated RAF-1 E1 protein level at 35 uM measured after 24 hrs by Western blot analysis relative to control; type: cell-based
structure (smiles),measurement,setting,value
O=P(Oc1ccccc1)(Oc1ccccc1)OC1C2OC3(c4ccccc4)OC(C2O)C(O)C1O3 (stereo not drawn),fold change (FC),[1],0.35
same,Activity,MDA-MB-231 [2],Dose-dependent effect
same,IC50,"MDA-MB-231 [2]; MDA-MB-231, 48 h",22.4 µM
same,fold change (FC),[3],1.11
same,fold change (FC),[4],0.85
same,fold change (FC),[5],0.91
same,Activity,MDA-MB-231 [6],44.74%
same,fold change (FC),[7],0.99
same,fold change (FC),[8],0.42
same,Activity,MDA-MB-231 [9],59.93%
same,Activity,MCF7 [10],1.23%
same,fold change (FC),[11],0.99
same,Activity,MDA-MB-231 [12],40.07%
same,Activity,MCF7 [13],Dose-dependent effect
same,IC50,"MCF7 [13]; MCF7, 48 h",35.1 µM
same,inhibition,[14],Dose-dependent effect
same,Activity,MDA-MB-231 [15],21.02%
same,Activity,MDA-MB-231 [16],0.07%
same,fold change (FC),[17],1.18
same,fold change (FC),[18],1.16
same,fold change (FC),[19],0.91
same,fold change (FC),[20],1.25
same,Activity,MCF7 [21],0.28%
same,Activity,MCF7 [22],66.88%
same,fold change (FC),[23],1.15
same,fold change (FC),[24],0.91
same,Activity,MDA-MB-231 [25],0.39%
same,fold change (FC),[26],1.24
same,Activity,MCF7 [27],0.37%
same,fold change (FC),[28],0.97
same,fold change (FC),[29],0.93
same,Activity,MDA-MB-231 [30],0.64%
same,fold change (FC),[31],1.05
